Source: patent publication US5106407A, “Iodones and methods for antimicrobial use” (priority 1989, dated 1992)
≈ marks a conversion by molar mass, not a printed value.

Legend:
Experiment in all cases: minimum inhibitory concentration (MIC), agar dilution
Type in all cases: cell-based
[1] = system: Staphylococcus aureus; conditions: Staphylococcus aureus, ATCC6538; ATCC 6538; nutrient agar pH 6.8; read-out: MIC
Procedure: (§1) The minimum inhibitory concentration (MIC) for the compound of Example 19, i.e., (2-nitrophenyl)-iodonium 2,2-dimethyl-4,6-dioxo-1,3-dioxan-5-ylide was determined for 9 bacteria (using nutrient agar) and 5 yeast and fungi (using malt yeast agar). A one percent solution of this test compound (i.e., the compound of Example 19) was prepared in a mixture of acetone-water. Nutrient agar was prepared at pH 6.8 using deionized water according to standard Difco procedures. Malt yeast agar was prepared by adding 3 g Bacto yeast extract and 42 g Bacto Malt agar per liter of deionized water. The agar (nutrient agar when testing with bacteria and malt yeast agar when testing with yeast and fungi) was dispensed in 30 mL aliquots into 25×200 millimeter (mm) test tubes, capped and autoclaved for 15 min at 115° C. The test tubes containing the agar were cooled in a water bath until the temperature of the agar was 48° C. and then an appropriate amount of the one percent solution of the test compound was added (except in the controls where no test compound was added with the acetone-water) to the respective test tubes so that final concentrations of 500, 250, 100, 50, 25, 10, 5, 2.5, 1.0 and 0 parts per million (ppm) of the test compound in the agar were obtained. The agar solutions were each mixed and poured into individual petri plates so that each petri plate contained agar having a known concentration of test compound dispersed therein. After drying for 24 hr, the petri plates were inoculated with bacteria when the petri plates contained nutrient broth agar or with fungi and yeast when the petri plates contained malt yeast agar.
(§2) The inoculation with bacteria was accomplished using the following procedure. Twenty-four hr cultures of each of the bacteria were prepared by incubating the respective bacteria in tubes containing nutrient broth for 24 hr at 30° C. in a shaker. Dilutions of each of the 24 hr cultures were made so that 9 separate suspensions (one for each of the 9 test bacteria) were made, each containing about 10^8 colony forming units (CFU) per mL of suspension of a particular bacteria. Aliquots of 0.3 mL of each of the above suspensions were used to fill individual wells of a Steer's Replicator. For each microbial suspension, 0.3 mL was used to fill 3 wells (i.e., 3 wells of 0.3 mL each) so that for the 9 different bacteria 27 wells were filled. The Steer's Replicator was then used to inoculate the petri plates.
(§3) The petri plates were incubated at 30° C. for 48 hr and then read to determine if the test compound (i.e., the compound of Example 19) which was incorporated into the agar prevented growth of the respective bacteria. The minimum inhibitory concentration (MIC) for each bacteria was defined as the lowest concentration of the test compound which prevented growth of that bacteria.
(§4) In a similar procedure, the MIC (in ppm) of the compound of Example 11 (i.e., (2-nitrophenyl)-iodonium 2,6-dioxocyclohexylide) for various organisms was determined at an acid pH (about 6.8) and at an alkaline pH (about 8.2).

[2] = system: Pseudomonas aeruginosa; conditions: Pseudomonas aeruginosa, ATCC10145; ATCC 10145; nutrient agar pH 6.8; read-out: MIC
Procedure: as §1, §2, §3, §4

[3] = system: Proteus vulgaris; conditions: Proteus vulgaris, ATCC881; ATCC 881; nutrient agar pH 6.8; read-out: MIC
Procedure: as §1, §2, §3, §4

[4] = system: Salmonella choleraesuis; conditions: Salmonella enterica, ATCC 10708 / CHOLERAESUIS, nutrient agar pH 6.8, read-out: MIC
Procedure: as §1, §2, §3, §4

[5] = system: Escherichia coli; conditions: Escherichia coli, ATCC11229; ATCC 11229; nutrient agar pH 6.8; read-out: MIC
Procedure: as §1, §2, §3, §4

[6] = system: Klebsiella pneumoniae; conditions: Klebsiella pneumoniae, ATCC8308; ATCC 8308; nutrient agar pH 6.8; read-out: MIC
Procedure: as §1, §2, §3, §4

[7] = system: Pseudomonas aeruginosa PRD-10; conditions: Pseudomonas aeruginosa, ATCC15442; ATCC 15442; nutrient agar pH 6.8; read-out: MIC
Procedure: as §1, §2, §3, §4

## CC1(C)OC(=O)[C-]([I+]c2ccccc2[N+](=O)[O-])C(=O)O1 [Example 19, (2-Nitrophenyl)-iodonium 2,2-dimethyl-4,6-dioxo-1,3-dioxan-5-ylide]
[1]
  MIC: ≤ 1 µg/mL
[2]
  MIC: 10 µg/mL (≈ 25.6 µM)
[3]
  MIC: ≤ 1 µg/mL
[4]
  MIC: ≤ 1 µg/mL
[5]
  MIC: ≤ 1 µg/mL
[6]
  MIC: ≤ 1 µg/mL
[7]
  MIC: 10 µg/mL (≈ 25.6 µM)
